The source of these data is publication PMC10923054, “Antiplasmodial peptaibols act through membrane directed mechanisms” (Cell Chemical Biology, 2024).

By IC50 is commonly meant the point on the concentration scale where inhibition reaches its midpoint. The term EC50 denotes the concentration needed to bring the measured effect to its halfway point.

One experiment concerns PfMDR1 cKD parasite line. Put plainly: MDR1 compound susceptibility assay (Renilla luciferase). In kind it is cell-based, P. falciparum. The source says: A conditional knockdown parasite line was generated for the P. falciparum multi-drug resistance 1 (MDR1; PF3D7_0523000) following previously described procedures.[84]^,[85] The native PfMDR1 locus was engineered using CRISPR/SpCas9 to afford transcriptional fusion of 10 tandem TetR-DOZI binding aptamers in the 3′UTR for anhydrotetracycline (aTc)-dependent regulation of PfMDR1 expression.
(§1) As a control cell line, a parasite line expressing an aptamer-regulatable fluorescent protein integrated in the cg6 locus[84] was assayed in parallel. Synchronous ring-stage parasites in the presence (0.5 μM) and absence of aTc were dispensed into 384-well polystyrene microplates (Corning®), and compounds added using the Janus® platform (PerkinElmer). DMSO- and DHA (0.5 μM) served as normalization controls for maximal and minimum signal. Luminescence was measured after 72 h and IC50 values were obtained from normalized dose-response curves using GraphPad Prism Version 8.

Experiment [1] has as its system wild-type YFP-expressing NF54. Put plainly: MDR1 compound susceptibility assay, control line. Format: cell-based, P. falciparum. As to conditions: Plasmodium falciparum, NF54, MDR1, 72 h, read-out: IC50 in the wild-type YFP-expressing NF54. On the procedure: as §1
The next experiment has as its system P. falciparum Dd2. Kind of experiment: Phenotypic screen: asexual blood stage EC50 determination (SYBR Green I). As to conditions: values in Data S1 (not shown). Format: cell-based. On the procedure:
Asexual blood stage parasites grown in the Chakrabarti laboratory were cultured based on a protocol by Trager and Jensen[57] with some modifications.[35] Culture was maintained at 4% hematocrit with human A+ whole blood obtained from the Florida OneBlood, in RPMI 1640 supplemented with 25 mM HEPES pH 7.4, 26 mM NaHCO3, 2% dextrose, 15 mg/L hypoxanthine, 25 mg/L gentamycin, and 0.5% Albumax II. Incubator conditions remained at 37°C and 5% CO2, 5% O2, 90% N2, or 95% air. For comparison screening using serum vs Albumax II, culture media was changed from RPMI with 0.5% Albumax II to RPMI with 10% human serum and maintained for a minimum of 2 weeks prior to assay use.
(§2) Inhibitor EC50 determination in 3D7 and Dd2 was performed as discussed in,[35] based on established protocols.[60] Assays utilized asynchronous culture at 1% parasitemia, 1% hematocrit. Culture was incubated with compound dilutions for 72 h followed by freezing at −80°C to promote lysis, then thawing and incubation for 45 min–1 h with 1× SYBR Green I in a lysis buffer (20 mM Tris-HCL, 0.08% saponin, 5 mM EDTA, and 0.8% Triton X-100). Fluorescence was read 485 nm excitation, 530 nm emission on a Synergy Neo2 multimode reader (BioTek Winsooki, VT) and EC50 curves were generated using CDD Vault (https://www.collaborativedrug.com/).

The subject of experiment [2] is P. falciparum asexual blood stage parasites grown in 10% human serum. Kind of experiment: Antiplasmodial activity with serum media. In kind it is cell-based. As to conditions: Plasmodium falciparum, 336 h; RPMI with 10% human serum, maintained minimum 2 weeks; mean ± SEM from 3 biological replicates. On the procedure:
(§3) Asexual blood stage parasites grown in the Chakrabarti laboratory were cultured based on a protocol by Trager and Jensen[57] with some modifications.[35] […] For comparison screening using serum vs Albumax II, culture media was changed from RPMI with 0.5% Albumax II to RPMI with 10% human serum and maintained for a minimum of 2 weeks prior to assay use.
as §2

Experiment [3] has as its system P. falciparum asexual blood stage parasites grown in 0.5% Albumax II. Kind of experiment: Antiplasmodial activity with Albumax II media. In kind it is cell-based. The settings on record: Plasmodium falciparum; RPMI with 0.5% Albumax II; mean ± SEM from 3 biological replicates. On the procedure:
as §3, §2

For experiment [4] the following is noted: concentrations up to 200 μM; propionate buffer pH 5.2, 16 h, 37°C; biological triplicate.
Experimental: Assay plates were incubated at 37°C with gentle shaking for 16 h. A combination of 7.5% SDS in a 0.1 M bicarbonate buffer (pH 9.1) was then added to microtiter wells at a 1:3 ratio with gentle mixing. Plates were incubated for 10 min to allow crystals to settle before taking 50 μL of supernatant and adding it to 200 μL of 2.5% SDS in a 0.1 M bicarbonate buffer, pH 9.1. After mixing, absorbances were read at 405 nm on a Synergy Neo2 multimode reader (BioTek, Winsooki, VT). […] Images of the 200 μM treatment or control prior to SDS quenching were taken using a Nikon Eclipse TE200 inverted microscope.

In the case of `OC(c1cc(C(F)(F)F)nc2c(C(F)(F)F)cccc12)C1CCCCN1` (stereo not shown) [mefloquine, reference compound], the IC50 in the experiment with PfMDR1 cKD parasite line (Plasmodium falciparum, MDR1, 72 h, read-out: IC50 when the protein was knocked down) came out at 5 nM; in experiment [1], 0.4 nM. Also, in the experiment on PfMDR1 cKD parasite line (with (0.5 μM) vs without aTc, 72 h, luminescence), the “shift in sensitivity upon PfMDR1 knockdown” value is listed as ~12 fold.
For “Ac-Aib-L-Asn-L-Leu-L-Ile-Aib-L-Pro-D-Iva-L-Leu-Aib-L-Pro-L-Leu-NH2 [Harzianin HB I – amide, synthesized amide of an 11-AA peptaibol]”, the “activity of new isomers relative to their original counterparts” value with P. falciparum Dd2 is given as “decreased inhibition”.
As to `CCN(CC)CCCC(C)Nc1ccnc2cc(Cl)ccc12` (stereo not shown) [CQ, chloroquine, reference compound], the results for the EC50 in experiment [2] and in experiment [3] were 100 ± 20 nM and 160 ± 10 nM, respectively. Moreover, in experiment [4], the “inhibition of β-hematin crystallization” value is on record as “clear, dose-dependent inhibition”.
